# Laboratory results from US20090047742A1 (priority 2005, published 2009).
# What was measured:
# [1] = system: human GAPDH and β-actin mRNA; experiment: Northern blot analysis of cellular mRNA in T-Rex-293 cells; assay type: cell-based; details: T-Rex-293 (mazF/pcDNA3) cells
# Protocol: Northern blot analysis and real-time PCR (RT-PCR) was preformed as previously described (Zhang, Y., et al., Mol. Cell 12: 913-923 (2003); Cuconati, A., et al., Genes Dev. 17: 2922-2932 (2003)). Total RNA from tetracycline-treated (0, 24, 48 and 72 hr) or untreated (0, 24, 48 and 72 hr) T-Rex-293 (mazF/pcDNA3) and T-Rex-293 (mazF/mazE) cells for were isolated through the use of Trizol Reagent (Gibco, Carlsbad, Calif.). For Northern blot analysis, 10 μg of total RNA from each condition was subjected to formaldehyde-agarose gel electrophoresis followed by transfer onto GeneScreen Plus membrane (NEN Life Science Products, Boston, Mass.). The blot was hybridized with ^32P-labeled human GAPDH or β-actin cDNA. One hundred ng of total RNA was subjected to real time RT-PCR with the Taqman EZ-RT PCR kit (PE Applied Biosystems, Lincoln Centre Drive Foster City, Calif.) using recommended conditions provided by the vendor. Primers to analyze the level of human GAPDH mRNA were obtained from Applied Biosystems, and a probe for GAPDH was supplied with 5′ linkage to the reporter dye 2, 7-dimethoxy-4, 5-dichloro-6-carboxy-fluoroecein (JOE), and 3′ linkage to the quencher 6-carboxy-tetramethylrhodamine (TAMURA). β-actin primer sequences were 5′-[…]-3′ and 5′-[…]-3′. β-actin probe sequence was FAM-5′-[…] TTCC-3′-TAMURA. Reactions were carried out in triplicate and the relative amount of human GAPDH and β-actin mRNA was calculated from the difference in fluorescence signal in the 24-, 48- and 72-hr samples compared with the corresponding 0 hr sample.
# To assess cellular mRNA levels, total RNA was isolated from whole cells of Tet-treated or -untreated T-Rex-293 cells and subjected to Northern blot analysis using human GAPDH and β-actin cDNA probes. […] Labeled single-stranded DNA fragments complementary to the specific mRNA being sought then are hybridized to the bound mRNA and the label detected by suitable means. […]
# [2] = system: iBMK cells; experiment: β-galactosidase assay, viability of iBMK cells co-expressing LacZ; assay type: cell-based, mouse
# Protocol: β-galactosidase assays to determine the viability of iBMK cells co-expressing LacZ and MazF were performed as previously described (Han, J., Sabbatini, P., and White, E. Mol. Cell. Biol. 16: 5857-5864 (1996)). W2, D3, X2 and K1 co-transfected with pcDNA6/His/LacZ and pcDNA4/TO/mazF or pcDNA3 for 48 hr were fixed in 1% glutaraldehyde and then stained with 0.2% X-gal solution at 37° C. for 24 hr. β-Galactosidase positive blue cells and the total number of cells (approximately 200 cells) were independently counted on a 6-cm diameter dish.
# [3] = system: T-Rex-293 cells; experiment: FACS analysis of propidium iodide labeling (sub-G1 peak); assay type: cell-based, human; details: T-Rex-293 (mazF/pcDNA3), 72 hours of Tet induction
# Protocol: T-Rex-293 (mazF/pcDNA3) cells and T-Rex-293 (mazF/mazE) cells treated with tetracycline for 0, 24, 48 and 72 hr were harvested by trypsinization, pelleted by centrifugation and resuspended in PBS. The cells were fixed with ice-cold 70% ethanol for 30 min and stained with propidium iodide (10 μg/ml) and RNase A (100 μg/ml) overnight. The cells were analyzed on a Becton Dickinson FACSCalibur system (San Jose, Calif.).
# [4] = system: activated caspase-3 in iBMK cells; experiment: immunofluorescence of activated caspase-3 in iBMK cells; assay type: cell-based, mouse
# Protocol: W2, D3, X2 and K1 cells co-transfected by electroporation with a combination of plasmids pcDNA6/His/lacZ with pcDNA4/TO/mazF or pcDNA3 were grown on glass coverslips for 24 hr and fixed in 100% methanol for 10 min at −20° C. After blocking in 1% BSA-PBS for 1 hr at 37° C., cells on coverslips were incubated with anti-active caspase-3 rabbit polyclonal antibody and anti-Xpress mouse monoclonal antibody (Invitrogen, Carlsbad, Calif.) for 1 hr at 37° C. followed by incubation with rhodamine-conjugated anti-rabbit IgG and FITC-conjugated anti-mouse IgG antibody for 1 hr at 37° C. Staining was visualized by a Nikon FXA microscope equipped with epifluorescence optics (Nikon Inc., Garden City, N.Y.). The percentage of cells positive for active caspase-3 was determined by scoring 50-100 cells on each coverslip.
substance,measurement,setting,value
MazF: E. coli toxin; sequence specific endoribonuclease (mRNA interferase) cleaving single-stranded RNAs at ACA sequences; expressed from plasmid pcDNA4/TO/mazF,levels of both GAPDH and β-actin mRNAs (Northern blot),[1]; 48 hours post-induction of MazF,almost completely lost
same,levels of both GAPDH and β-actin mRNAs (Northern blot),[1]; after 24 hours of MazF induction by Tet,dramatically decreased
same,β-galactosidase expression,[2]; D3 (bax−/− bak−/−) iBMK cells expressing MazF,little effect
same,response to MazF (β-galactosidase assay),[2]; K1 (bak−/−) iBMK cells,preferentially resistant
same,β-galactosidase positive cells,"[2]; W2 iBMK cells transiently co-expressing LacZ and MazF, 48 hours post-transfection",significant decrease
same,number of β-galactosidase positive cells,[2]; X2 (bax−/−) iBMK cells expressing MazF,significantly decreased
same,response to MazF-induced cell death (β-galactosidase assay),[2]; nbk/bik−/− iBMK cells,preferentially resistant
same,number of β-galactosidase positive cells,"[2]; puma−/−, bim−/−, noxa−/− iBMK cells transiently expressing MazF",significantly decreased
same,sub-G1 peak,[3],65.9%
same,cells with activated caspase-3,[4]; D3 and K1 cells transiently expressing MazF,< 0.1%
same,active-caspase-3 positive cells,[4]; W2 cells transiently expressing MazF,58.1%
same,active-caspase-3 positive cells,[4]; X2 cells transiently expressing MazF,47.2%
